Patent publication US6407235B1, “Prodrug acid esters of [2-(4-benzyl-3-hydroxy-piperidin-1-yl)-ethansulfonyl]phenol” (Hoffmann-La Roche Inc., priority 2001, dated 2002)
≈ marks a conversion by molar mass, not a printed value. Where two headings read alike, the source gives them in different places.

How the values were obtained:
[1] = Solubility; format: physicochemical; details: for Solubility at pH 7.4 relative to the parent compound, suggested/assumed from pH 4.0 data: pH 7.4, not measured directly
[2] = system: NMDA receptor subtype; details: known from WO 00/75109; cited from earlier work
[3] = Stability in solution; format: physicochemical; details: pH 7.4, 24 hours
[4] = pH 7, aqueous buffer, read-out: Solubility (μg/ml at pH 7)
[5] = pH 4, aqueous buffer, read-out: Solubility (μg/ml at pH 4)

Structure (SMILES) | solubility ([1]; aqueous buffer, pH 4.8 (printed in the cell of the pH 4 column), read-out: Solubility (μg/ml) at pH 4.8) | solubility [1, 4] | Water solubility at physiological pH ([1]; physiological pH) | NMDA receptor subtype specific blocker [2] | solubility [1, 5] | Solubility at pH 7.4 relative to the parent compound, suggested/assumed from pH 4.0 data [1] | Stability at pH 7.4 over 24 hours [3]
O=S(=O)(CCN1CC[C@H](Cc2ccccc2)[C@H](O)C1)c1ccc(O)cc1 [Compound of formula II, (3S,4S)-4-[2-(4-benzyl-3-hydroxy-piperidin-1-yl)-ethanesulfonyl]-phenol, reference compound] | 7750 µg/mL | 47 µg/mL | limited water solubility | good NMDA receptor subtype specific blocker | – | – | –
O=C(O)CCC(=O)Oc1ccc(S(=O)(=O)CCN2CC[C@H](Cc3ccccc3)[C@H](O)C2)cc1 [Example 1, Succinic Acid Mono-{(3S,4S)-4-[2-(4-benzyl-3-hydroxy-piperidin-1-yl)-ethanesulfonyl]-phenyl}ester] | – | 7690 µg/mL (≈ 16.2 mM) | – | – | 1800 µg/mL (≈ 3.78 mM) | – | –
O=P(O)(O)Oc1ccc(S(=O)(=O)CCN2CC[C@H](Cc3ccccc3)[C@H](O)C2)cc1 [Example 2, Phosphoric Acid Mono-{(3S,4S)-4-[2-(4-benzyl-3-hydroxy-piperidin-1-yl)-ethanesulfonyl]-phenyl}ester] | – | > 37600 µg/mL | – | – | 594 µg/mL (≈ 1.3 mM) | – | –
O=C(Oc1ccc(S(=O)(=O)CCN2CC[C@H](Cc3ccccc3)[C@H](O)C2)cc1)c1cccc(CN2CCOCC2)c1 [Example 6, 3-Morpholin-4-ylmethyl-benzoic Acid (3S,4S)-4-[2-(4-benzyl-3-hydroxy-piperidin-1-yl)-ethanesulfonyl]-phenyl Ester] | – | 89 µg/mL (≈ 0.154 mM) | – | – | 8500 µg/mL (≈ 14.7 mM) | – | –
NCc1ccc(C(=O)Oc2ccc(S(=O)(=O)CCN3CC[C@H](Cc4ccccc4)[C@H](O)C3)cc2)cc1 [Example 7, 4-Aminomethyl-benzoic Acid (3S,4S)-4-[2-(4-benzyl-3-hydroxy-piperidin-1-yl)-ethanesulfonyl]-phenyl Ester] | – | – | – | – | 6710 µg/mL (≈ 13.2 mM) | higher solubility can be assumed | unstable
CNCc1cccc(C(=O)Oc2ccc(S(=O)(=O)CCN3CC[C@H](Cc4ccccc4)[C@H](O)C3)cc2)c1 [Example 9, 3-Methylaminomethyl-benzoic Acid (3S,4S)-4-[2-(4-benzyl-3-hydroxy-piperidin-1-yl)-ethanesulfonyl]-phenyl Ester] | – | – | – | – | 86600 µg/mL (≈ 166 mM) | higher solubility | unstable
CNCc1ccc(C(=O)Oc2ccc(S(=O)(=O)CCN3CC[C@H](Cc4ccccc4)[C@H](O)C3)cc2)cc1 [Example 10, 4-Methylaminomethyl-benzoic Acid (3S,4S)-4-[2-(4-benzyl-3-hydroxy-piperidin-1-yl)-ethanesulfonyl]-phenyl Ester] | – | – | – | – | 26100 µg/mL (≈ 49.9 mM) | higher solubility | unstable
